# Patent US9376438B2, “Pyrazolopyrimidine derivatives as tyrosine kinase inhibitors” (Principia Biopharma, Inc., priority 2011, dated 2016)
# Biological target: human recombinant Btk (Homo sapiens, UniProt Q06187)
# Experiment: Btk Enzymatic Activity Assay (Caliper-based kinase assay)
# Type: biochemical
# Settings: human recombinant Btk 2 nM, ATP 40 μM, peptide substrate 1 μM, room temperature, 3 h; read-out: IC50 (inhibition of Btk kinase activity)
# Method: A Caliper-based kinase assay (Caliper Life Sciences, Hopkinton, Mass.) was used to measure inhibition of Btk kinase activity of a compound of Formula (I). Serial dilutions of test compounds were incubated with human recombinant Btk (2 nM), ATP (40 μM) and a phosphoacceptor peptide substrate FAM-GEEPLYWSFPAKKK-NH2 (1 μM) at room temperature for 3 h. The reaction was then terminated with EDTA, final concentration 20 mM and the phosphorylated reaction product was quantified on a Caliper Desktop Profiler (Caliper LabChip 3000). Percent inhibition was calculated for each compound dilution and the concentration that produced 50% inhibition was calculated. This value is presented as the IC50.
# Sequence of human recombinant Btk (Q06187 whole entry): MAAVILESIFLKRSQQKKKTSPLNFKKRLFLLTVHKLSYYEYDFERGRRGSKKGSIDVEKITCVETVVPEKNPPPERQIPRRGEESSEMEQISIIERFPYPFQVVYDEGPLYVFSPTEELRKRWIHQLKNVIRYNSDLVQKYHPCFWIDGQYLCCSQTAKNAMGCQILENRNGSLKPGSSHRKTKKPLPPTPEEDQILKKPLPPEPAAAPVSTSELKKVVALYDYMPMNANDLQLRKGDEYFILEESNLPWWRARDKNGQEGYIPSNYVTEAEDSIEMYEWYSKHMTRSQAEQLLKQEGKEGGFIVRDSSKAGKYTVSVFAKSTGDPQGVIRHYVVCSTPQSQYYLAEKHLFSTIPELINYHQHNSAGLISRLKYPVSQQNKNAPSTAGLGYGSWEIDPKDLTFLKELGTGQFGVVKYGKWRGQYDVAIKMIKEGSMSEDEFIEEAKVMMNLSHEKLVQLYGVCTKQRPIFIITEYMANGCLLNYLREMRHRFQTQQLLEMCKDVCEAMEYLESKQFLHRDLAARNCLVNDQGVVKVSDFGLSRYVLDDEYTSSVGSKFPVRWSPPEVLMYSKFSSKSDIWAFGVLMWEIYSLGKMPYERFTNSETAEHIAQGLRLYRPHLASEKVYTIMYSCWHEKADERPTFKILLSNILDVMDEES
row,IC50,SMILES
1,203 nM,"Nc1ncnc2c1c(-c1ccc(Oc3ccccc3)cc1)nn2C[C@H]1CCCN1C(=O)C(F)=CC1CC1 [Example 1, (R)-1-(2-((4-amino-3-(4-phenoxyphenyl)-1H-pyrazolo[3,4-d]pyrimidin-1-yl)methyl)pyrrolidin-1-yl)-3-cyclopropyl-2-fluoroprop-2-en-1-one]"
2,41 nM,"Nc1ncnc2c1c(-c1ccc(Oc3ccccc3)cc1)nn2C[C@H]1CCCN1C(=O)C(=CC1CC1)C(F)(F)F [Example 2, (R)-1-(2-((4-amino-3-(4-phenoxyphenyl)-1H-pyrazolo[3,4-d]pyrimidin-1-yl)methyl)pyrrolidin-1-yl)-3-cyclopropyl-2-(trifluoromethyl)prop-2-en-1-one]"
3,23 nM,"Nc1ncnc2c1c(-c1ccc(Oc3ccccc3)cc1)nn2CCCN1C(=O)SC(=CC2CC2)C1=O [Example 3, 3-(3-(4-amino-3-(4-phenoxyphenyl)-1H-pyrazolo[3,4-d]pyrimidin-1-yl)propyl)-5-(cyclopropylmethylene)thiazolidine-2,4-dione]"
4,860 nM,"Nc1ncnc2c1c(-c1ccc(Oc3ccccc3)cc1)nn2CCN1C(=O)SC(=Cc2ccccc2)C1=O [Example 4, 3-(2-(4-amino-3-(4-phenoxyphenyl)-1H-pyrazolo[3,4-d]pyrimidin-1-yl)ethyl)-5-benzylidenethiazolidine-2,4-dione]"
5,49 nM,"Nc1ncnc2c1c(-c1ccc(Oc3ccccc3)cc1)nn2CCN1C(=O)SC(=CC2CC2)C1=O [Example 5, 3-(2-(4-amino-3-(4-phenoxyphenyl)-1H-pyrazolo[3,4-d]pyrimidin-1-yl)ethyl)-5-(cyclopropylmethylene)thiazolidine-2,4-dione]"
